Experimental data reported in patent US12187723B2 (BRISTOL-MYERS SQUIBB COMPANY, priority 2019, dated 2025).

target: T1, human TLR7 (Homo sapiens, UniProt Q9NYK1); test: TLR7 inhibition reporter assay (HEK-Blue SEAP); type: cell-based; details: HEK-Blue cells overexpressing human TLR7, gardiquimod 7.5 μM, 22 hour incubation
T1 construct: host or cells: HEK-Blue cells
T1 sequence (Q9NYK1 27-1049): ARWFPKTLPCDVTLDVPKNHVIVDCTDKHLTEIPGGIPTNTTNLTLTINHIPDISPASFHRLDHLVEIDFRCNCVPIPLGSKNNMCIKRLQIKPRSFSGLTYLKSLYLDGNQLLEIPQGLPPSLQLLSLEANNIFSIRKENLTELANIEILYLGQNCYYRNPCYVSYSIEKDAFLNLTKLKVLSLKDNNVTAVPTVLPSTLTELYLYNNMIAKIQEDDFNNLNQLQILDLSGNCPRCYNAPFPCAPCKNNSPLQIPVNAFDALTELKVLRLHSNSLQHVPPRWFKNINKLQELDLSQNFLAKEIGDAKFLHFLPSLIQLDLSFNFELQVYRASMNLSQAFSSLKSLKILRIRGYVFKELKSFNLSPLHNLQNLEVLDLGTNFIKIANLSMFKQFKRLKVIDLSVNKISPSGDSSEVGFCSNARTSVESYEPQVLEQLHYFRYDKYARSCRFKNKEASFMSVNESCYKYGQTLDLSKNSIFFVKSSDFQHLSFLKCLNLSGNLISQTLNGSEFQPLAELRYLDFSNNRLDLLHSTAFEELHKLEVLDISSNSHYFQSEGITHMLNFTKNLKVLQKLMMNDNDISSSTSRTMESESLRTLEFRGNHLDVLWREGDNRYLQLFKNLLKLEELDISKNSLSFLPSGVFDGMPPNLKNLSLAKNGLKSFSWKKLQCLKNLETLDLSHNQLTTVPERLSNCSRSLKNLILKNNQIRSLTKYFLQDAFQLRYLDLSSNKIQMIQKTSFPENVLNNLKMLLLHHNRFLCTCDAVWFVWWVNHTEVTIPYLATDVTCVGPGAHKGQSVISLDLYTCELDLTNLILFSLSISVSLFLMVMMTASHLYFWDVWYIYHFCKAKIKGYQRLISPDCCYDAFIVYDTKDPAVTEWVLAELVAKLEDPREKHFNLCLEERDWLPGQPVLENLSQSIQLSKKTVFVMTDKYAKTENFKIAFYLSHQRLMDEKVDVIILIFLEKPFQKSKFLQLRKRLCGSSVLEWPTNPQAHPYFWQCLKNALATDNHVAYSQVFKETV
Outline: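 SEAP readout via HEK-Blue Detection medium after 22 h at 37 °C, 5% CO2 defines inhibition, normalized between agonist-plus-DMSO wells and a reference inhibitor. Compound dose range 0.05 nM–50 μM; TLR7 cells at 15,000/well (gardiquimod), TLR8 at 20,000/well (R848).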

Row | SMILES | IC50
1 | COc1cc(-c2cc3[nH]c(=O)n([C@H]4CC[C@@H](N(C)C)CC4)c3cc2C(C)C)cn2ncnc12 [Example 191, 1-((1s,4s)-4-(dimethylamino)cyclohexyl)-6-isopropyl-5-(8-methoxy-[1,2,4]triazolo[1,5-a]pyridin-6-yl)-1,3-dihydro-2H-benzo[d]imidazol-2-one] | 1.49 nM
2 | CCN[C@H]1CC[C@@H](n2c(=O)[nH]c3cc(-c4cn5ncnc5c(C)c4C)c(C(C)C)cc32)CC1 [Example 189, 5-(7,8-dimethyl-[1,2,4]triazolo[1,5-a]pyridin-6-yl)-1-((1s,4s)-4-(ethylamino)cyclohexyl)-6-isopropyl-1,3-dihydro-2H-benzo[d]imidazol-2-one] | 9.82 nM
3 | Cc1cc2c(cc1-c1cc(C)c3ncnn3c1)[nH]c(=O)n2[C@@H]1CCCN(C(C)C)C1 [Example 17, (R)-1-(1-isopropylpiperidin-3-yl)-6-methyl-5-(8-methyl-[1,2,4]triazolo[1,5-a]pyridin-6-yl)-1,3-dihydro-2H-benzo[d]imidazol-2-one] | 13.1 nM
4 | CCCN(CCC)[C@H]1CC[C@@H](n2c(=O)[nH]c3cc(-c4cn5ncnc5c(C)c4C)c(C(C)C)cc32)CC1 [Example 199, 5-(7,8-dimethyl-[1,2,4]triazolo[1,5-a]pyridin-6-yl)-1-((1s,4s)-4-(dipropylamino)cyclohexyl)-6-isopropyl-1,3-dihydro-2H-benzo[d]imidazol-2-one] | 5.03 nM
5 | COc1cc(-c2cc3[nH]c(=O)n(C4CCC(N5CC6(CCOCC6)C5)CC4)c3cc2C(C)C)cn2ncnc12 (single isomer, unassigned) [Example 235, 1-(4-(7-oxa-2-azaspiro[3.5]nonan-2-yl)cyclohexyl)-6-isopropyl-5-(8-methoxy-[1,2,4]triazolo[1,5-a]pyridin-6-yl)-1,3-dihydro-2H-benzo[d]imidazol-2-one] | 1.52 nM
6 | COCCN1CCC(n2c(=O)[nH]c3cc(-c4cc(OC)c5ncnn5c4)c(C(C)C)cc32)CC1 [Example 223, 6-isopropyl-5-(8-methoxy-[1,2,4]triazolo[1,5-a]pyridin-6-yl)-1-(1-(2-methoxyethyl)piperidin-4-yl)-1,3-dihydro-2H-benzo[d]imidazol-2-one] | 16.9 nM

Second part, the compound after the results:

Row | IC50 | SMILES
7 | 11.3 nM | COCCN1CCC[C@H](n2c(=O)[nH]c3cc(-c4cc(OC)c5ncnn5c4)c(C(C)C)cc32)C1 [Example 221, (S)-6-isopropyl-5-(8-methoxy-[1,2,4]triazolo[1,5-a]pyridin-6-yl)-1-(1-(2-methoxyethyl)piperidin-3-yl)-1,3-dihydro-2H-benzo[d]imidazol-2-one]
8 | 6.52 nM | CCc1cc2c(cc1-c1cc(OC)c3ncnn3c1)[nH]c(=O)n2[C@@H]1CCCN(CCC(C)(C)C)C1 [Example 208, (R)-1-(1-(3,3-dimethylbutyl)piperidin-3-yl)-6-ethyl-5-(8-methoxy-[1,2,4]triazolo[1,5-a]pyridin-6-yl)-1,3-dihydro-2H-benzo[d]imidazol-2-one]
9 | 0.05 nM | COc1cc(-c2cc3[nH]c(=O)n([C@@H]4CCCN(CC5CCCC5)C4)c3cc2C(C)C)cn2ncnc12 [Example 211, (R)-1-(1-(cyclopentylmethyl)piperidin-3-yl)-6-isopropyl-5-(8-methoxy-[1,2,4]triazolo[1,5-a]pyridin-6-yl)-1,3-dihydro-2H-benzo[d]imidazol-2-one]
10 | 37.3 nM | CCc1cc2c(cc1-c1cc(OC)c3ncnn3c1)[nH]c(=O)n2[C@@H]1CCCN(C2CCOC2)C1 (stereo partly drawn) [Example 213, 6-ethyl-5-(8-methoxy-[1,2,4]triazolo[1,5-a]pyridin-6-yl)-1-((3R)-1-(tetrahydrofuran-3-yl)piperidin-3-yl)-1,3-dihydro-2H-benzo[d]imidazol-2-one]
11 | 144 nM | CCN1CCC[C@H](n2c(=O)[nH]c3cc(-c4cc(C)c5ncnn5c4)c(C)cc32)C1 [Example 12, (S)-1-(1-ethylpiperidin-3-yl)-6-methyl-5-(8-methyl-[1,2,4]triazolo[1,5-a]pyridin-6-yl)-1,3-dihydro-2H-benzo[d]imidazol-2-one]
